Reference: US20250275991A1, “ORAL COMPLEMENT FACTOR D INHIBITORS” (BioCryst Pharmaceuticals, Inc, priority 2019, published 2025)

Molecular target: Factor D (Homo sapiens, UniProt P00746)
Assay: Factor D esterolytic assay
Assay type: biochemical
Conditions: substrate Z-Lys-SBzl 1.29 mM, 100 mM HEPES, 500 mM NaCl, pH 7.5, 10% DMSO, tested a minimum of three times
Experimental: The IC50 value of a compound (i.e., the concentration of the compound that inhibits 50% of the enzymatic activity) was calculated according to the procedure reported in U.S. Pat. No. 6,653,340 B1, e.g., column 74 (incorporated by reference).
Specifically, the compounds were dissolved in a stock solution of DMSO at 10.0 or 100 mM. A portion of this stock solution was added to assay buffer in a final volume of 50 μL. Controls included buffer alone and enzyme solutions to which DMSO was added. Substrate was added to the reaction wells immediately or after incubation at room temperature. The reaction rates were measured spectrophotometrically by the generation of product at 405 nm for 600 sec. Background absorbance at 690 nm was measured and subtracted from the absorbance at 405 nm for each well.
The reaction rate for enzyme alone was compared to the rate of enzyme in the presence of inhibitor and the percent inhibition was calculated as shown below: […]
An established esterolytic assay for the measurement of Factor D activity and inhibition of Factor D activity was used (Kam, C. M.; McRae, B. J.; Harper, J. W.; Niemann, M. A.; Volanakis, J. E.; Powers, J. C. Human complement proteins D, C2, and B Active site mapping with peptide thioester substrates. J Biol. Chem. 1987, 262, 3444-3451). For this assay Z-Lys-SBzl, 1.29 mM (Kim, S.; Narayana, S. V. L; Volanakis, J. E. Mutational analysis of the substrate binding site of human complement Factor D. Biochemistry. 1994, 33, 14393-14399.) was used as the substrate for Factor D ([…]). Hydrolysis of this compound by Factor D liberated a free sulfhydryl group which is then reacted with 5,5′-dithiobis(2nitrobenzoic acid) producing an intense yellow color (Habeeb, A. F. S. A. Reaction of protein sulfhydryl groups with Ellman's Reagent. Methods in Enzymol. 1976, 25, 457-464). The assays were performed in 96 well microtiter plates and rates of hydrolysis were monitored at 405 nm on a Biotek Synergy H1 plate reader. Hydrolysis rates were reported as change in mOD/min. The assay was conducted in 100 mM HEPES, 500 mM NaCl, pH 7.5 containing 10% DMSO in a final volume of 50 μL per well.
An IC50, a compound concentration which inhibits 50% of the enzymatic activity, was calculated. Compounds in the examples were tested a minimum of three times.

Sequence of Factor D (P00746 26-253): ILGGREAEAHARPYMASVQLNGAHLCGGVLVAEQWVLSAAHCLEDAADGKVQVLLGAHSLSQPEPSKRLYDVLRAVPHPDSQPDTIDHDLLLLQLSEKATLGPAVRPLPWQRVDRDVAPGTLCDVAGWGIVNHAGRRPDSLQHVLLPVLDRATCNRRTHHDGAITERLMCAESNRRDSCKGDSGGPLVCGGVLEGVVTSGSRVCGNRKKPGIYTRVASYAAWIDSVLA

SMILES	IC50 [µM]
COc1ccc(CC(=O)O)c(OCc2cc(-c3cccc(C(N)CF)c3)c3occc3c2)c1 (single isomer, unassigned; (+)) [Compound 14k, (+)-2-(2-((7-(3-(1-amino-2-fluoroethyl)phenyl)benzofuran-5-yl)methoxy)-4-methoxyphenyl)acetic acid]	< 1
NC(CF)c1cccc(-c2cc(COc3cc(F)ccc3CC(=O)O)cc3ccoc23)c1 (single isomer, unassigned; (+)) [Compound 15f, (+)-2-(2-((7-(3-(1-amino-2-fluoroethyl)phenyl)benzofuran-5-yl)methoxy)-4-fluorophenyl)acetic acid]	< 1
NCc1cccc(-c2cc(COc3ccccc3C(NC(=O)C3CC3)C(=O)O)cc3ccoc23)c1 (single isomer, unassigned; (+)) [Compound 52f, (+)-2-(2-((7-(3-(aminomethyl)phenyl)benzofuran-5-yl)methoxy)phenyl)-2-(cyclopropanecarboxamido)acetic acid]	< 1
CCOC(=O)NC(C)c1ccc(CC(=O)O)c(OCc2cc(-c3cccc(CN)c3)c3occc3c2)c1 (single isomer, unassigned; (+)) [Compound 54g, (+)-2-(2-((7-(3-(aminomethyl)phenyl)benzofuran-5-yl)methoxy)-4-(1-(ethoxycarbonylamino)ethyl)phenyl)acetic acid]	< 1
CC(N)c1ccc(CC(=O)O)c(OCc2cc(-c3cccc(CN)c3)c3occc3c2)c1 (single isomer, unassigned; (+)) [Compound 60a, (+)-2-(4-(1-aminoethyl)-2-((7-(3-(aminomethyl)phenyl)benzofuran-5-yl)methoxy)phenyl)acetic acid]	< 1
CC(Oc1ccccc1CC(=O)O)c1cc(-c2cccc(CN)c2)c2occc2c1 (single isomer, unassigned; (+)) [Compound 77f, (+)-2-(2-(1-(7-(3-(aminomethyl)phenyl)benzofuran-5-yl)ethoxy)phenyl)acetic acid]	< 1
NCc1cccc(-c2cc(COc3ccccc3C(NC(=O)C3CC3)C(=O)O)cc3ccoc23)c1 (single isomer, unassigned; (-)) [Compound 51f, (−)-2-(2-((7-(3-(aminomethyl)phenyl)benzofuran-5-yl)methoxy)phenyl)-2-(cyclopropanecarboxamido)acetic acid]	< 1
CCOC(=O)NC(C)c1ccc(CC(=O)O)c(OCc2cc(-c3cccc(CN)c3)c3occc3c2)c1 (single isomer, unassigned; (-)) [Compound 55e, (−)-2-(2-((7-(3-(aminomethyl)phenyl)benzofuran-5-yl)methoxy)-4-(1-((ethoxycarbonyl)amino)ethyl)phenyl)acetic acid]	< 1
CC(N)c1ccc(CC(=O)O)c(OCc2cc(-c3cccc(CN)c3)c3occc3c2)c1 (single isomer, unassigned; (-)) [Compound 61a, (−)-2-(4-(1-aminoethyl)-2-((7-(3-(aminomethyl)phenyl)benzofuran-5-yl)methoxy)phenyl)acetic acid]	< 1
CC(Oc1ccccc1CC(=O)O)c1cc(-c2cccc(CN)c2)c2occc2c1 (single isomer, unassigned; (-)) [Compound 77g, (−)-2-(2-(1-(7-(3-(aminomethyl)phenyl)benzofuran-5-yl)ethoxy)phenyl)acetic acid]	< 1
CCC(N)c1cc(-c2cc(COc3ccccc3CC(=O)O)cc3ccoc23)cs1 (stereo not shown) [Compound 1j, 2-(2-((7-(5-(1-aminopropyl)thiophen-3-yl)benzofuran-5-yl)methoxy)phenyl)acetic acid]	1 to 10
CCC(N)c1cccc(-c2cc(COc3ccccc3CC(=O)O)cc3ccoc23)c1 (stereo not shown) [Compound 2f, 2-(2-((7-(3-(1-aminopropyl)phenyl)benzofuran-5-yl)methoxy)phenyl)acetic acid]	< 1
CC(C)C(N)c1cccc(-c2cc(COc3ccccc3CC(=O)O)cc3ccoc23)c1 (stereo not shown) [Compound 3c, 2-(2-((7-(3-(1-amino-2-methylpropyl)phenyl)benzofuran-5-yl)methoxy)phenyl)acetic acid]	1 to 10
CC(N)c1cc(-c2cc(COc3ccccc3CC(=O)O)cc3ccoc23)cs1 (stereo not shown) [Compound 4c, 2-(2-((7-(5-(1-aminoethyl)thiophen-3-yl)benzofuran-5-yl)methoxy)phenyl)acetic acid]	> 10
NCc1nc(-c2cc(COc3ccccc3CC(=O)O)cc3ccoc23)cs1 [Compound 5e, 2-(2-((7-(2-(aminomethyl)thiazol-4-yl)benzofuran-5-yl)methoxy)phenyl)acetic acid]	< 1
NCc1csc(-c2cc(COc3ccccc3CC(=O)O)cc3ccoc23)n1 [Compound 6e, 2-(2-((7-(4-(aminomethyl)thiazol-2-yl)benzofuran-5-yl)methoxy)phenyl)acetic acid]	< 1
CC(N)c1nc(-c2cc(COc3ccccc3CC(=O)O)cc3ccoc23)cs1 (stereo not shown) [Compound 7e, 2-(2-((7-(2-(1-aminoethyl)thiazol-4-yl)benzofuran-5-yl)methoxy)phenyl)acetic acid]	1 to 10
NCc1cc(-c2cc(COc3ccccc3CC(=O)O)cc3ccoc23)c[nH]1 [Compound 8g, 2-(2-((7-(5-(aminomethyl)-1H-pyrrol-3-yl)benzofuran-5-yl)methoxy)phenyl)acetic acid]	1 to 10
NCc1cccc(-c2cc(COc3cc(C(=O)O)ccc3CC(=O)O)cc3ccoc23)c1 [Compound 9d, 3-((7-(3-(aminomethyl)phenyl)benzofuran-5-yl)methoxy)-4-(carboxymethyl)benzoic acid]	< 1
NCc1cccc(-c2cc(COc3cc(OC(F)(F)F)ccc3CC(=O)O)cc3ccoc23)c1 [Compound 10d, 2-(2-((7-(3-(aminomethyl)phenyl)benzofuran-5-yl)methoxy)-4-(trifluoromethoxy)phenyl)acetic acid]	< 1
NCc1nccc(-c2cc(COc3ccc(F)cc3CC(=O)O)cc3c(C(F)(F)F)coc23)c1F [Compound 11m, 2-(2-((7-(2-(aminomethyl)-3-fluoropyridin-4-yl)-3-(trifluoromethyl)benzofuran-5-yl)methoxy)-5-fluorophenyl)acetic acid]	< 1
COCc1cc2cc(COc3cc(C(C)=O)ccc3CC(=O)O)cc(-c3cccc(CN)c3)c2o1 [Compound 12j, 2-(4-acetyl-2-((7-(3-(aminomethyl)phenyl)-2-(methoxymethyl)benzofuran-5-yl)methoxy)phenyl)acetic acid]	< 1
CC(=O)c1ccc(CC(=O)O)c(OCc2cc(-c3ccnc(CN)c3F)c3occ(C(F)(F)F)c3c2)c1 [Compound 13f, 2-(4-acetyl-2-((7-(2-(aminomethyl)-3-fluoropyridin-4-yl)-3-(trifluoromethyl)benzofuran-5-yl)methoxy)phenyl)acetic acid]	< 1
NCc1cccc(-c2cc(COc3ccc(F)cc3CC(=O)O)cc3cc(F)oc23)c1 [Compound 16f, 2-(2-((7-(3-(aminomethyl)phenyl)-2-fluorobenzofuran-5-yl)methoxy)-5-fluorophenyl)acetic acid]	< 1
NCc1nccc(-c2cc(COc3ccc(F)cc3CC(=O)O)cc3cc(F)oc23)c1F [Compound 17d, 2-(2-((7-(2-(aminomethyl)-3-fluoropyridin-4-yl)-2-fluorobenzofuran-5-yl)methoxy)-5-fluorophenyl)acetic acid]	< 1
